Measured values published in patent publication US10011595B2 (Merck Sharp & Dohme Corp., priority 2014, dated 2018).

Molecular target: human orexin-2 receptor (Homo sapiens (Human), UniProt O43614)
Assay: FLIPR Ca2+ Flux Assay, orexin-2 receptor
Format: cell-based
Details: CHO cells expressing the human orexin-2 receptor; agonist 70 pM Ala-6,12 orexin-A; read-out: hOX2R FLIPR IC50
Procedure, shortened: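 CHO cells expressing rat OX1 or human OX2 receptor, Fluo-4AM loaded 60 min; compound preincubated 5 min before 70 pM Ala-6,12 human orexin-A in HBSS/20 mM HEPES/0.1% BSA/2.5 mM probenecid, pH 7.4. FLIPR peak fluorescence over 5 min versus agonist-only response gives IC50.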

Sequence of human orexin-2 receptor (O43614 whole entry): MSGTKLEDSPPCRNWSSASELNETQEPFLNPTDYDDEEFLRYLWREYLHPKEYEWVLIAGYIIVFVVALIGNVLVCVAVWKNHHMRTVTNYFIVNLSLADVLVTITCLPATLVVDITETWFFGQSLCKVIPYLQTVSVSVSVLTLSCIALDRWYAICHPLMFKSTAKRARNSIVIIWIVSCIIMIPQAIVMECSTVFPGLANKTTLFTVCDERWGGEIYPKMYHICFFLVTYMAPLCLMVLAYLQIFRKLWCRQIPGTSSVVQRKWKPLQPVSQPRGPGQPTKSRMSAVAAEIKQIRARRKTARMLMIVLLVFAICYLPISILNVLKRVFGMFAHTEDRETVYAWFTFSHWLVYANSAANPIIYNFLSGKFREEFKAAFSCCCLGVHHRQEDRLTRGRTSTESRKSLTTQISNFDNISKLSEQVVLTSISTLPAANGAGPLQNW

Compound	IC50
CCN(CCN(C)c1cc(C#N)ccn1)C(=O)c1ccccc1-c1ncc[nH]1 [Example F-24, N-{2-[(4-cyanopyridin-2-yl)(methyl)amino]ethyl}-N-ethyl-2-(1H-imidazol-2-yl)benzamide]	1630 nM
CCOc1ncccc1C(=O)N(CC)CCN(C)c1nccc(C(C)(C)O)n1 [Example H-15, 2-ethoxy-N-ethyl-N-(2-((4-(2-hydroxypropan-2-yl)pyrimidin-2-yl)(methyl)amino)ethyl) nicotinamide]	77.3 nM
CCN(CCN(C)c1cccc(C(C)(C)O)n1)C(=O)c1cccnc1CC(F)(F)F [Example I-19, N-ethyl-N-(2-((6-(2-hydroxypropan-2-yl)pyridin-2-yl)(methyl)amino)ethyl)-2-(2,2,2-trifluoroethyl)nicotinamide]	2270 nM
CCOc1ncccc1C(=O)N(CC)CCN(C)c1nc(C)cc(C)n1 [Example B-6, N-(2-((4,6-dimethylpyrimidin-2-yl)(methyl)amino)ethyl)-2-ethoxy-N-ethylnicotinamide]	68.1 nM
CCN(CCN(C)c1cccc(C(C)(C)O)n1)C(=O)c1ccccc1-n1cccn1 [Example I-10, N-ethyl-N-(2-((6-(2-hydroxypropan-2-yl)pyridin-2-yl)(methyl)amino)ethyl)-2-(1H-pyrazol-1-yl)benzamide]	93.3 nM
CCN(CCN(C)c1nc(C)cc(C)n1)C(=O)c1ccc(OC)nc1C1CC1 [Example B-19, 2-cyclopropyl-N-{2-[(4,6-dimethylpyrimidin-2-yl)(methyl)amino]ethyl}-N-ethyl-6-methoxypyridine-3-carboxamide]	32.1 nM
CCN(CCN(C)c1nccc(C(C)(C)O)n1)C(=O)c1cccnc1-c1ccccc1 [Example H-30, N-ethyl-N-(2-((4-(2-hydroxypropan-2-yl)pyrimidin-2-yl)(methyl)amino)ethyl)-2-phenylnicotinamide]	53 nM
CN(CCN(CC1CC1)C(=O)c1ccccc1-n1nccn1)c1cc(C#N)ccn1 [Example G-7, N-(2-((4-cyanopyridin-2-yl)(methyl)amino)ethyl)-N-(cycloproplmethyl)-2-(2H-1,2,3-triazol-2-yl)benzamide]	35.8 nM
CCCCN(CCN(C)c1cc(C#N)ccn1)C(=O)c1ccccc1-n1nccn1 [Example G-5, N-butyl-N-(2-((4-cyanopyridin-2-yl)(methyl)amino)ethyl)-2-(2H-1,2,3-triazol-2-yl)benzamide]	19.8 nM
